Values after ≈ are worked out from the molar mass of the structure shown.
How the values were obtained:
[1] = tested on: CHO-K1; test: Cytotoxicity against CHOK1 cells after 24 hrs by MTT assay; assay type: cell-based; conditions: Cricetulus griseus, CHO-K1, 24 h
[2] = tested on: Mycobacterium tuberculosis; test: Antibacterial activity against Mycobacterium tuberculosis H37Rv by MABA; assay type: functional
[3] = tested on: Mycobacterium tuberculosis; test: Antibacterial activity against Mycobacterium tuberculosis H37Rv by resazurin dye-based assay; assay type: functional
[4] = tested on: Mycobacterium avium; test: Antibacterial activity against Mycobacterium avium CNCTC My 330/88; assay type: functional
[5] = tested on: Mycobacterium kansasii; test: Antibacterial activity against Mycobacterium kansasii isolate 6509/96; assay type: functional
[6] = tested on: Mycobacterium kansasii; test: Antibacterial activity against Mycobacterium kansasii CNCTC My 235/80; assay type: functional
[7] = tested on: Mycobacterium tuberculosis; test: Antibacterial activity against Mycobacterium tuberculosis CNCTC My 331/88; assay type: functional
[8] = tested on: Plasmodium falciparum; test: Antimalarial activity against Plasmodium falciparum K2 infected in human erythrocytes assessed as parasitemia after 48 hrs by YOYO-1 staining-based flow cytometric analysis; assay type: functional, organism-based; conditions: K2, 48 h
[9] = biological target: T1, Falcipain 2 (Plasmodium falciparum, UniProt Q9N6S8); test: Inhibition of Plasmodium falciparum falcipain-2 preincubated for 30 mins followed by Z-Leu-Arg-AMC substrate addition and measured up to 15 mins by spectrofluorometric analysis
T1 sequence (Q9N6S8 whole entry): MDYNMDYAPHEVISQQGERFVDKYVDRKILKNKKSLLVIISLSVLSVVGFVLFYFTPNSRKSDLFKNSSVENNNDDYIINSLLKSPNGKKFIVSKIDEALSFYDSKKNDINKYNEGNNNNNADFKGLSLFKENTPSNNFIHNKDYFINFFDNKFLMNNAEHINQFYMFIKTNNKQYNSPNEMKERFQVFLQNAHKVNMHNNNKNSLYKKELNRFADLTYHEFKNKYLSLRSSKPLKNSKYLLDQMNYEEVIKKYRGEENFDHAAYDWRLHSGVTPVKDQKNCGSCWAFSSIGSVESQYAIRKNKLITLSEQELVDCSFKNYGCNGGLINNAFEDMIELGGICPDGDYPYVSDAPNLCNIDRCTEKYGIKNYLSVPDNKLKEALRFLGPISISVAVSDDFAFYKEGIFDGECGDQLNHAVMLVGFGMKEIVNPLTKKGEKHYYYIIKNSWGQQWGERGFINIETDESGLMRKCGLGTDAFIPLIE

[10] = biological target: T2, Cysteine protease falcipain-3 (Plasmodium falciparum, UniProt Q9NAW4); test: Inhibition of Plasmodium falciparum falcipain-3 preincubated for 30 mins followed by Z-Leu-Arg-AMC substrate addition and measured up to 15 mins by spectrofluorometric analysis
T2 sequence (Q9NAW4 whole entry): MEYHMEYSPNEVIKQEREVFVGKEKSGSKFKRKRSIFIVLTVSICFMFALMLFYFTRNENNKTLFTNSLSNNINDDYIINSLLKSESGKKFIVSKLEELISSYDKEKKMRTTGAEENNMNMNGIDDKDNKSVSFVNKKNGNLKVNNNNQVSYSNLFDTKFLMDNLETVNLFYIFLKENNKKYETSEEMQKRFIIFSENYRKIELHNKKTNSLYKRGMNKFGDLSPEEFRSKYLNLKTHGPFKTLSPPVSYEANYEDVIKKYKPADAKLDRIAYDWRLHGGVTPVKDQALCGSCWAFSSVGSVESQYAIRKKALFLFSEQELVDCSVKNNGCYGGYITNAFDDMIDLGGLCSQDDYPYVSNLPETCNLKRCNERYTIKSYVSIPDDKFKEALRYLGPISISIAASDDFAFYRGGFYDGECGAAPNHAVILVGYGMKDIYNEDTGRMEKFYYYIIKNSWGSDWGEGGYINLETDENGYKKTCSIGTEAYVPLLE

[11] = tested on: Plasmodium falciparum; test: Antimalarial activity against ring-stage chloroquine-susceptible Plasmodium falciparum 3D7 preincubated for 6 hrs followed by compound wash and measured after 66 hrs by Giemsa-staining based light microscopic analysis; assay type: functional, organism-based
[12] = tested on: Plasmodium falciparum; test: Antimalarial activity against ring-stage multidrug-resistant Plasmodium falciparum Dd2 preincubated for 6 hrs followed by compound wash and measured after 66 hrs by Giemsa-staining based light microscopic analysis; assay type: functional, organism-based

Question: Which IC50 [1] does the source give for `COc1ccc(S(=O)(=O)n2nnnc2-c2ccc(OCC(O)(Cn3cncn3)c3ccc(Cl)cc3Cl)c(OC)c2)cc1` (stereo unspecified) here?
Answer: > 150 µg/mL

Question: What about the MIC [2] of the same compound?
Answer: 1.56 to 12.5 µg/mL (≈ 2.47 to 19.8 µM)

Question: Which results are given for `COc1cc(-c2nnnn2S(=O)(=O)c2ccccc2)ccc1OCC(O)(Cn1cncn1)c1ccc(F)cc1F` (stereo unspecified)?
Answer: IC50 [1]: > 150 µg/mL; MIC [2]: 3.12 µg/mL (≈ 5.48 µM)

Question: What does the source list for `COc1ccc(S(=O)(=O)n2nnnc2-c2ccc(OCC(O)(Cn3cncn3)c3ccc(F)cc3F)c(OC)c2)cc1` (stereo unspecified)?
Answer: IC50 [1]: > 150 µg/mL; MIC [2]: 1.56 µg/mL (≈ 2.6 µM)

Question: With `COc1cc(-c2nnnn2S(=O)(=O)c2ccc(F)cc2)ccc1OCC(O)(Cn1cncn1)c1ccc(Cl)cc1Cl` (stereo unspecified) as the compound, how does the IC50 [1] read?
Answer: > 150 µg/mL

Question: What about the MIC [2] of the same compound?
Answer: 1.56 to 12.5 µg/mL (≈ 2.51 to 20.1 µM)

Question: For `COc1cc(-c2nnnn2S(=O)(=O)c2ccc(C(C)(C)C)cc2)ccc1OCC(O)(Cn1cncn1)c1ccc(Cl)cc1Cl` (stereo unspecified), which IC50 [1] is on record?
Answer: > 150 µg/mL

Question: And the MIC [2]?
Answer: 1.56 to 12.5 µg/mL (≈ 2.37 to 19 µM)

Question: Which MIC [3] does the source give for `O=C(Cn1nnnc1-c1ccccc1)NN1C(=O)C(Cl)C1c1ccccc1` (stereo unspecified) here?
Answer: > 6.25 µg/mL

Question: How did the MIC [4] turn out when `Sc1nnnn1-c1ccc(Cl)cc1` was run?
Answer: 250 to 500 µg/mL (≈ 1180 to 2350 µM)

Question: And the MIC [5]?
Answer: 250 to 500 µg/mL (≈ 1180 to 2350 µM)

Question: And the MIC [6]?
Answer: 250 to 500 µg/mL (≈ 1180 to 2350 µM)

Question: What about the MIC [7] of the same compound?
Answer: 250 to 500 µg/mL (≈ 1180 to 2350 µM)

Question: For `COc1cc(-c2nnnn2S(=O)(=O)c2ccc(Br)cc2)ccc1OCC(O)(Cn1cncn1)c1ccc(Cl)cc1Cl` (stereo unspecified), which IC50 [1] is on record?
Answer: > 150 µg/mL

Question: What about the MIC [2] of the same compound?
Answer: 1.56 to 12.5 µg/mL (≈ 2.29 to 18.3 µM)

Question: `Sc1nnnn1-c1ccccc1` was tested. Which MIC [4] did it give?
Answer: 250 to 500 µg/mL (≈ 1400 to 2810 µM)

Question: And the MIC [5]?
Answer: 250 to 500 µg/mL (≈ 1400 to 2810 µM)

Question: What about the MIC [6] of the same compound?
Answer: 250 to 500 µg/mL (≈ 1400 to 2810 µM)

Question: And the MIC [7]?
Answer: 250 to 500 µg/mL (≈ 1400 to 2810 µM)

Question: How did the IC50 [8] turn out when `Cc1cc(NC(=O)Cn2nnc(-c3ccc(N)cc3)n2)no1` was run?
Answer: > 10 µM

Question: And the IC50 [9]?
Answer: 6.67 to 43.9 µM

Question: And the IC50 [10]?
Answer: 6.67 to 43.9 µM

Question: For `Cc1cc(NC(=O)Cn2nnc(-c3ccccc3NC(=O)c3ccccc3F)n2)no1`, which IC50 [8] is on record?
Answer: > 10 µM

Question: What about the IC50 [9] of the same compound?
Answer: 6.67 to 43.9 µM

Question: What about the IC50 [10] of the same compound?
Answer: 6.67 to 43.9 µM

Question: How did the IC50 [8] turn out when `CC(C(=O)N1c2ccccc2CCc2ccccc21)n1nnc(-c2ccc(N3CCOCC3)cc2)n1` (stereo unspecified) was run?
Answer: > 10 µM

Question: What about the IC50 [9] of the same compound?
Answer: 6.67 to 43.9 µM

Question: And the IC50 [10]?
Answer: 6.67 to 43.9 µM

Question: For `O=C(Cn1nnc(-c2ccccc2)n1)NNC(=O)c1ccco1`, which IC50 [8] is on record?
Answer: > 10 µM

Question: What about the IC50 [9] of the same compound?
Answer: 6.67 to 43.9 µM

Question: And the IC50 [10]?
Answer: 6.67 to 43.9 µM

Question: `CN(C)c1ccc(C2C(Cl)C(=O)N2NC(=O)Cn2nnnc2-c2ccccc2)cc1` (stereo unspecified) was tested. Which MIC [3] did it give?
Answer: 0.156 µg/mL (≈ 0.366 µM)

Question: `COc1cc(-c2nnnn2S(=O)(=O)c2ccc(OC(F)(F)F)cc2)ccc1OCC(O)(Cn1cncn1)c1ccc(F)cc1F` (stereo unspecified) was tested. Which IC50 [1] did it give?
Answer: > 150 µg/mL

Question: How did the IC50 [1] turn out when `COc1cc(-c2nnnn2S(=O)(=O)c2ccc(Br)s2)ccc1OCC(O)(Cn1cncn1)c1ccc(F)cc1F` (stereo unspecified) was run?
Answer: > 150 µg/mL

Question: And the MIC [2]?
Answer: 1.56 µg/mL (≈ 2.38 µM)

Question: What does the source list for `COc1cc(-c2nnnn2S(=O)(=O)c2ccc(F)cc2)ccc1OCC(O)(Cn1cncn1)c1ccc(F)cc1F` (stereo unspecified)?
Answer: IC50 [1]: > 150 µg/mL; MIC [2]: 6.25 µg/mL (≈ 10.6 µM)

Question: `COc1cc(-c2nnnn2S(=O)(=O)c2ccc(Br)s2)ccc1OCC(O)(Cn1cncn1)c1ccc(Cl)cc1Cl` (stereo unspecified) was tested. Which IC50 [1] did it give?
Answer: > 150 µg/mL

Question: What about the MIC [2] of the same compound?
Answer: 1.56 µg/mL (≈ 2.27 µM)

Question: How did the IC50 [11] turn out when `Cn1nnc(NCC2CCC3(CC2)OOC2(O3)C3CC4CC(C3)CC2C4)n1` (stereo unspecified) was run?
Answer: 0.0029 µM

Question: What about the IC50 [12] of the same compound?
Answer: 0.0021 µM

Question: How did the MIC [3] turn out when `O=C(Cn1nnnc1-c1ccccc1)NN1C(=O)C(Cl)C1c1ccc(Br)cc1` (stereo unspecified) was run?
Answer: > 6.25 µg/mL

Question: For `Sc1nnnn1-c1ccc(Cl)c(Cl)c1`, which MIC [4] is on record?
Answer: 250 to 500 µg/mL (≈ 1010 to 2020 µM)

Question: And the MIC [5]?
Answer: 250 to 500 µg/mL (≈ 1010 to 2020 µM)

Question: And the MIC [6]?
Answer: 250 to 500 µg/mL (≈ 1010 to 2020 µM)

Question: And the MIC [7]?
Answer: 250 to 500 µg/mL (≈ 1010 to 2020 µM)

Question: What does the source list for `COc1cc(-c2nnnn2S(=O)(=O)c2ccc(C)cc2)ccc1OCC(O)(Cn1cncn1)c1ccc(Cl)cc1Cl` (stereo unspecified)?
Answer: IC50 [1]: > 150 µg/mL; MIC [2]: 1.56 to 12.5 µg/mL (≈ 2.53 to 20.3 µM)

Question: With `C1C2CC3CC1CC(C2)C31OOC2(CCC(Nc3nnn[nH]3)CC2)OO1` (stereo unspecified) as the compound, how does the IC50 [11] read?
Answer: 0.063 µM

Question: What about the IC50 [12] of the same compound?
Answer: 0.0435 µM

Question: Which results are given for `C[C@H]1[C@@H](O)O[C@@H]2O[C@@]3(C)CC[C@H]4[C@H](C)CC[C@@H]1[C@@]24OO3` [ARTENIMOL]?
Answer: IC50 [11]: 0.0047 µM; IC50 [12]: 0.0042 µM

Question: With `Cc1ccc(-n2nnnc2SCc2ccccc2)cc1` as the compound, how does the MIC [4] read?
Answer: 8 to 250 µg/mL (≈ 28.3 to 885 µM)

Question: What about the MIC [5] of the same compound?
Answer: 8 to 250 µg/mL (≈ 28.3 to 885 µM)

Question: What about the MIC [6] of the same compound?
Answer: 8 to 250 µg/mL (≈ 28.3 to 885 µM)

Question: And the MIC [7]?
Answer: 8 to 250 µg/mL (≈ 28.3 to 885 µM)

Question: Which results are given for `COc1ccc(-c2ccc(-c3nnn(CC(=O)c4ccccc4)n3)cc2)cc1`?
Answer: IC50 [8]: > 10 µM; IC50 [9]: 6.67 to 43.9 µM; IC50 [10]: 6.67 to 43.9 µM
